{"source": "patent US20230293404A1", "about": "“Compositions Comprising Natural Polymers and One or More (Bio)-Alkanediols” (Symrise AG, priority 2020, published 2023)", "key": {"[1]": {"tested_on": "microbial load of natural polymers", "assay": "Microbial load of mixtures of natural polymers with alkanediols (plating, CFU count)", "format": "cell-based, bacteria", "description": "The following tests were performed to show the influence of different alkanediols on the microbial load of natural polymers.\nA selection of natural polymers as specified in Table 1 was systematically analyzed in combination with different 1,2-alkanediols and 2,3-alkanediols (0.5%). The polymers were chosen to be representative from different polymer classes:\nA mixture of the natural polymer (concentration as recommended by supplier) with water and 1,2-alkanediol (0.5%) or 2,3-alkanediol (0.5%) or a mixture of 1,2-alkanediol and 2,3-alkanediol (0.5% final concentration) was prepared, as representative of a cold formulation preparation processes, and directly sampled for determination of microbial load. Additionally, the mixtures were stored at 40° C. and again sampled for microbial load after 2 days and 7 days.\nThe microbial load of the mixtures was determined by plating 1000 μl (or respective dilutions of the material) on an agar plate based on universal bacterial growth medium (Caseinpepton-Sojamehlpepton-Bouillon, Merck 1.05459+Agar No. 1, Oxoid LP0011). The plates were then incubated at 37° C. for 5 days and then photo documented. In parallel, bacterial colonies were counted (CFU—colony forming units per ml)."}, "[2]": {"assay": "Physical state of alkanediols and alkanediol mixtures at RTP", "format": "physicochemical", "settings": "at RTP (room temperature, normal pressure); FIG. 3 and FIG. 4", "text": "The term “liquid alkanediol” within the context of the present invention means an alkanediol component which is liquid at room or ambient temperature and under normal pressure, i.e. standard RTP conditions.\nFIG. 3 is a photograph showing from left to right samples of the liquid 1,2-pentanediol, 1,2-hexanediol, 1,2-heptanediol, 2,3-heptanediol, 2,3-octanediol and 2,3-undecanediol in comparison to the solid 1,2-octanediol, 1,2-undecanediol, 1,2-nonanediol and the liquid 2,3-nonanediol. The first six alkanediols are liquid at RTP, whereas 1,2-octanediol, 1,2-nonanediol and 1,2-undecanediol are solid substances at RTP; 2,3-nonanediol is also liquid at RTP.\nFIG. 4 is a representative photograph of samples of mixtures of 1,2-alkanediols with the respective 2,3-alkanediol. All mixtures are liquid. They are shown in the following order: 1,2-heptanediol (95%)+2,3-heptanediol (5%), 1,2-octanediol (95%)+2,3-octanediol (5%), and 1,2-nonanediol (95%)+2,3-nonanediol (5%)."}, "[3]": {"assay": "Maximum solubility of alkanediols in water (visual assessment)", "format": "physicochemical", "settings": "assessed at ambient temperature after 24 h storage at 5° C.; visual observation", "source_text": "The water solubility of a substance is the saturation mass concentration of the substance in water at a given temperature. The determination of the solubility in water relates to essentially pure substances which are stable in water and not volatile.\nFor the determination of the maximum water solubility of an alkanediol, water and different concentrations of the respective alkanediol were blended by stirring. […] The determination of whether the alkanediol has dissolved in water is based entirely on visual observation."}, "[4]": {"settings": "Covathick (2009, cellulose 0.5%) in water + 0.5% 1,2-alkanediol, 2 days storage at 40° C."}, "[5]": {"settings": "Covathick (2009, cellulose 0.5%) in water + 0.5% 1,2-alkanediol, 7 days storage at 40° C."}, "[6]": {"settings": "Covathick (2009, cellulose 0.5%) in water + 0.5% 1,2-alkanediol, fresh"}, "[7]": {"settings": "Genuvisco (CG-131, carrageenan 0.5%) in water + 0.5% 1,2-alkanediol, 7 days storage at 40° C."}, "[8]": {"settings": "Genuvisco (CG-131, carrageenan 0.5%) in water + 0.5% 1,2-alkanediol, fresh"}, "[9]": {"settings": "Nativacare (5600, corn starch 3%) in water + 0.5% 1,2-alkanediol, 2 days storage at 40° C."}, "[10]": {"settings": "Nativacare (5600, corn starch 3%) in water + 0.5% 1,2-alkanediol, 7 days storage at 40° C."}, "[11]": {"settings": "Nativacare (5600, corn starch 3%) in water + 0.5% 1,2-alkanediol, fresh"}, "[12]": {"settings": "Polycos-N 75 (guar gum 0.5%) in water + 0.5% 1,2-alkanediol, 2 days storage at 40° C."}, "[13]": {"settings": "Polycos-N 75 (guar gum 0.5%) in water + 0.5% 1,2-alkanediol, 7 days storage at 40° C."}, "[14]": {"settings": "Polycos-N 75 (guar gum 0.5%) in water + 0.5% 1,2-alkanediol, fresh"}, "[15]": {"settings": "Xanthan Gum (Rheocare XGN 0.5%) in water + 0.5% 1,2-alkanediol, 2 days storage at 40° C."}}, "data": [{"smiles": "CCCCCC(O)CO", "note": "(stereo not shown) [1,2-heptanediol]", "values": [{"measurement": "Bacterial load (colony forming units)", "setting": "[1]; [4]", "value": 0, "unit": "CFU per ml"}, {"measurement": "Bacterial load (colony forming units)", "setting": "[1]; [5]", "value": 0, "unit": "CFU per ml"}, {"measurement": "Bacterial load (colony forming units)", "setting": "[1]; [6]", "value": 4, "unit": "CFU per ml"}, {"measurement": "Bacterial load (colony forming units)", "setting": "[1]; Genuvisco (CG-131, carrageenan 0.5%) in water + 0.5% 1,2-alkanediol, 2 days storage at 40° C.", "value": 0, "unit": "CFU per ml"}, {"measurement": "Bacterial load (colony forming units)", "setting": "[1]; [7]", "value": 0, "unit": "CFU per ml"}, {"measurement": "Bacterial load (colony forming units)", "setting": "[1]; [8]", "value": 0, "unit": "CFU per ml"}, {"measurement": "Bacterial load (colony forming units)", "setting": "[1]; [9]", "value": 0, "unit": "CFU per ml"}, {"measurement": "Bacterial load (colony forming units)", "setting": "[1]; [10]", "value": 0, "unit": "CFU per ml"}, {"measurement": "Bacterial load (colony forming units)", "setting": "[1]; [11]", "value": 0, "unit": "CFU per ml"}, {"measurement": "Bacterial load (colony forming units)", "setting": "[1]; [12]", "value": 0, "unit": "CFU per ml"}, {"measurement": "Bacterial load (colony forming units)", "setting": "[1]; [13]", "value": 0, "unit": "CFU per ml"}, {"measurement": "Bacterial load (colony forming units)", "setting": "[1]; [14]", "value": 5, "unit": "CFU per ml"}, {"measurement": "Bacterial load (colony forming units)", "setting": "[1]; Table 4: Covathick (0.5%) in water + alkanediol or mixture, 0.5% total, 2 days storage at 40° C.", "value": 0, "unit": "CFU per mL"}, {"measurement": "Bacterial load (colony forming units)", "setting": "[1]; Table 4: Covathick (0.5%) in water + alkanediol or mixture, 0.5% total, 7 days storage at 40° C.", "value": 0, "unit": "CFU per mL"}, {"measurement": "Bacterial load (colony forming units)", "setting": "[1]; Table 4: Covathick (0.5%) in water + alkanediol or mixture, 0.5% total, fresh", "value": 4, "unit": "CFU per mL"}, {"measurement": "Bacterial load (colony forming units)", "setting": "[1]; Table 4: PolyCos N-75 (0.5%) in water + alkanediol or mixture, 0.5% total, 2 days storage at 40° C.", "value": 0, "unit": "CFU per mL"}, {"measurement": "Bacterial load (colony forming units)", "setting": "[1]; Table 4: PolyCos N-75 (0.5%) in water + alkanediol or mixture, 0.5% total, 7 days storage at 40° C.", "value": 0, "unit": "CFU per mL"}, {"measurement": "Bacterial load (colony forming units)", "setting": "[1]; Table 4: PolyCos N-75 (0.5%) in water + alkanediol or mixture, 0.5% total, fresh", "value": 5, "unit": "CFU per mL"}, {"measurement": "Bacterial load (colony forming units)", "setting": "[1]; Table 4: Xanthan Gum (0.5%) in water + alkanediol or mixture, 0.5% total, 2 days storage at 40° C.", "value": 2, "unit": "CFU per mL"}, {"measurement": "Bacterial load (colony forming units)", "setting": "[1]; Table 4: Xanthan Gum (0.5%) in water + alkanediol or mixture, 0.5% total, 7 days storage at 40° C.", "value": 0, "unit": "CFU per mL"}, {"measurement": "Bacterial load (colony forming units)", "setting": "[1]; Table 5: Covathick (0.5 %) in water + alkanediol or mixture, 0.5% total, 2 days storage at 40° C.", "value": 0, "unit": "CFU per mL"}, {"measurement": "Bacterial load (colony forming units)", "setting": "[1]; Table 5: Covathick (0.5 %) in water + alkanediol or mixture, 0.5% total, 7 days storage at 40° C.", "value": 0, "unit": "CFU per mL"}, {"measurement": "Bacterial load (colony forming units)", "setting": "[1]; Table 5: Covathick (0.5 %) in water + alkanediol or mixture, 0.5% total, fresh", "value": 4, "unit": "CFU per mL"}, {"measurement": "Bacterial load (colony forming units)", "setting": "[1]; Table 5: PolyCos N-75 (0.5 %) in water + alkanediol or mixture, 0.5% total, 2 days storage at 40° C.", "value": 0, "unit": "CFU per mL"}, {"measurement": "Bacterial load (colony forming units)", "setting": "[1]; Table 5: PolyCos N-75 (0.5 %) in water + alkanediol or mixture, 0.5% total, 7 days storage at 40° C.", "value": 0, "unit": "CFU per mL"}, {"measurement": "Bacterial load (colony forming units)", "setting": "[1]; Table 5: PolyCos N-75 (0.5 %) in water + alkanediol or mixture, 0.5% total, fresh", "value": 5, "unit": "CFU per mL"}, {"measurement": "Bacterial load (colony forming units)", "setting": "[1]; Table 5: Xanthan Gum (0.5 %) in water + alkanediol or mixture, 0.5% total, 2 days storage at 40° C.", "value": 2, "unit": "CFU per mL"}, {"measurement": "Bacterial load (colony forming units)", "setting": "[1]; Table 5: Xanthan Gum (0.5 %) in water + alkanediol or mixture, 0.5% total, 7 days storage at 40° C.", "value": 0, "unit": "CFU per mL"}, {"measurement": "Bacterial load (colony forming units)", "setting": "[1]; [15]", "value": 2, "unit": "CFU per ml"}, {"measurement": "Bacterial load (colony forming units)", "setting": "[1]; Xanthan Gum (Rheocare XGN 0.5%) in water + 0.5% 1,2-alkanediol, 7 days storage at 40° C.", "value": 0, "unit": "CFU per ml"}, {"measurement": "Activity to stabilize natural polymer solutions for storage by removing their microbial load (in words)", "setting": "[1]; compared to 1,2-pentanediol and 1,2-hexanediol, Table 2", "value": "superior activity"}, {"measurement": "Physical state", "setting": "[2]", "value": "liquid"}, {"measurement": "Maximum solubility in water", "setting": "[3]", "value": 2.5, "unit": "% by weight"}]}, {"smiles": "CCCCC(O)CO", "note": "(stereo not shown) [1,2-hexanediol]", "values": [{"measurement": "Bacterial load (colony forming units)", "setting": "[1]; [4]", "value": 0, "unit": "CFU per ml"}, {"measurement": "Bacterial load (colony forming units)", "setting": "[1]; [5]", "value": ">13", "unit": "CFU per ml"}, {"measurement": "Bacterial load (colony forming units)", "setting": "[1]; [6]", "value": 3, "unit": "CFU per ml"}, {"measurement": "Bacterial load (colony forming units)", "setting": "[1]; [7]", "value": 0, "unit": "CFU per ml"}, {"measurement": "Bacterial load (colony forming units)", "setting": "[1]; [8]", "value": 3, "unit": "CFU per ml"}, {"measurement": "Bacterial load (colony forming units)", "setting": "[1]; [9]", "value": 0, "unit": "CFU per ml"}, {"measurement": "Bacterial load (colony forming units)", "setting": "[1]; [10]", "value": 0, "unit": "CFU per ml"}, {"measurement": "Bacterial load (colony forming units)", "setting": "[1]; [11]", "value": 1, "unit": "CFU per ml"}, {"measurement": "Bacterial load (colony forming units)", "setting": "[1]; [12]", "value": 19, "unit": "CFU per ml"}, {"measurement": "Bacterial load (colony forming units)", "setting": "[1]; [13]", "value": 2, "unit": "CFU per ml"}, {"measurement": "Bacterial load (colony forming units)", "setting": "[1]; [14]", "value": 9, "unit": "CFU per ml"}, {"measurement": "Bacterial load (colony forming units)", "setting": "[1]; [15]", "value": 1, "unit": "CFU per ml"}, {"measurement": "Bacterial load (colony forming units)", "setting": "[1]; Xanthan Gum (Rheocare XGN 0.5%) in water + 0.5% 1,2-alkanediol, fresh", "value": 7, "unit": "CFU per ml"}, {"measurement": "Physical state", "setting": "[2]", "value": "liquid"}, {"measurement": "Maximum solubility in water", "setting": "[3]", "value": 50, "unit": "% by weight"}]}, {"smiles": "CCCCCCCC(O)CO", "note": "(stereo not shown) [1,2-nonanediol]", "values": [{"measurement": "Physical state", "setting": "[2]", "value": "solid"}, {"measurement": "Maximum solubility in water", "setting": "[3]", "value": 0.1, "unit": "% by weight"}]}, {"smiles": "CCCCCCC(O)CO", "note": "(stereo not shown) [1,2-octanediol]", "values": [{"measurement": "Physical state", "setting": "[2]", "value": "solid"}, {"measurement": "Maximum solubility in water", "setting": "[3]", "value": 0.5, "unit": "% by weight"}]}]}
